From a melting point compilation (Tetko et al.; mined from patent text by program, amines drawn as free bases though some values may be those of a salt)

SMILES	melting point
Cc1cc2c(cc1C)CCC(C(=O)O)=C2	222 to 223 °C
CC#CC(C)(C)NC(=O)C(CC)Oc1cncc(Br)c1 (single isomer, unassigned; (-))	95 to 97 °C
CC(C)=Nc1c2c(nc3ccccc13)CCCC2	127 to 130 °C
O=C1Nc2ccc(I)cc2C1=NNC(=O)c1cccc(Oc2ccccc2)c1	283 °C
CN1CCN(c2cccc3ccc(-c4cccc(NS(C)(=O)=O)c4)cc23)CC1	100 to 101 °C
CCCSc1ccc(C(=O)OC)nc1	33 to 35 °C
CC(=CC#N)CCN1C(=O)c2ccccc2S1(=O)=O	117 to 118 °C
O=C(O)c1cn(C2CC2)c2c(OC(F)F)c(F)c(F)cc2c1=O	202 to 207 °C
O=C(O)[C@H]1CN(C(=O)OCc2ccccc2)CCN1c1cc(Cl)ccc1[N+](=O)[O-]	145 to 155 °C
CCCCCCCN(CCCCCS(=O)c1nc(-c2ccccc2)c(-c2ccccc2)[nH]1)C(=O)Nc1ccc(F)cc1F (configuration not stated)	77 to 79 °C
OCc1cccc(C(O)c2cc(C(F)(F)F)nc3c(C(F)(F)F)cccc23)c1 (configuration not stated)	152 to 154 °C
C[C@H](NC(=O)C[C@H](O)C[C@H](O)/C=C/c1c(C2CC2)nc2ccccc2c1-c1ccc(F)cc1)c1ccccc1	57 to 76 °C
O=C(N1CCN(c2ccncc2Cl)CC1)N1CCN(S(=O)(=O)c2ccc(Br)cc2)CC1	194 to 195 °C
CCN(CC)c1ccc(-c2cc3ccccc3o2)cc1	117 to 119 °C
Cc1noc(NS(=O)(=O)c2c(C)sc3ccccc23)c1C	174 to 176 °C
CC(=O)SC(CC(=O)c1ccccc1C)C(=O)O (configuration not stated)	106 to 108 °C
N#CC1=CCCc2ccc(Br)cc21	113 to 115 °C
COc1cc(OC)cc(Oc2ccc(C(=O)N(C(C)C)C3CCCCC3)cc2)c1	140 °C
CCCCOc1csc(C)c1C(=O)O	66 to 68 °C

SMILES	melting point
CN(C(=O)Nc1nc(OCC(F)(F)F)nc(OCC(F)(F)F)n1)c1ccc(C(F)(F)F)cc1	130 to 132 °C
O=C(O)[C@H](Oc1c(Br)cc(-c2c3ccccc3c(Br)c3sc4ccccc4c23)cc1Br)c1ccccc1	135 to 137 °C
CCCn1nc2c(N)nc3ccccc3c2c1CC	219 to 220 °C
COc1ccc(NS(C)(=O)=O)cc1CN1CCC(=O)C(C(c2ccccc2)c2ccccc2)C1 (configuration not stated)	132 to 135 °C
CCN(CC)c1nc(C(C)(C)C)nn1-c1c([N+](=O)[O-])cc(C(F)(F)F)cc1[N+](=O)[O-]	64 to 65 °C
O=C1c2ccccc2C(=O)N1C1CCCn2c1nc(-c1ccncc1)cc2=O (racemic)	211 to 213 °C
COc1cncnc1N1CCN(CCCc2c[nH]c3ccc(CNC(C)=O)cc23)CC1	169 to 174 °C
CN(CCCN1C(=O)c2cccc3cc4ccccc4c(c23)C1=O)CCCN1C(=O)c2cccc3cc4ccccc4c(c23)C1=O	194 °C
CC1(C)CC(O)CC(C)(C)N1CC(O)CN1C(C)(C)CC(O)CC1(C)C	186 to 190 °C
COc1ccc(C(=O)N(C)c2ccc(C(=O)O)cc2)cc1	157 to 160 °C
CC(C)(Oc1ccc(Cl)cc1)C(C)(O)c1cccnc1 (configuration not stated)	140 to 141 °C
CCCCCS(=O)(=O)NC(=O)CCc1cc(OCc2ccccc2)nn1Cc1ccc(Cl)cc1Cl	139 to 141 °C
CC(=C(c1ccccc1)c1ccccc1)P(C1CCCCC1)C1CCCCC1	128 to 130 °C
CN(CCCCOc1ccc(C=C2SC(=O)NC2=O)cc1)c1nc2ccccc2o1	168 °C
CNCCOc1ccc2nc(SCc3ccc(Cl)cc3)sc2c1	56 to 58 °C
[N-]=[N+]=NCC(COC(C(F)(F)F)(C(F)(F)F)C(F)(F)F)(COC(C(F)(F)F)(C(F)(F)F)C(F)(F)F)C(=O)O	97 to 98 °C
O=[N+]([O-])c1ccc(Oc2ccc(S(=O)(=O)NC3CCCCC3)cc2)cc1	94 °C
CCCn1ncnc1COc1nn2c(-c3ccccc3F)nncc2c1C(C)(C)C	93 °C
